Data: ChEMBL document CHEMBL1629414, “A neuroprotective sulfone of marine origin and the in vivo anti-inflammatory activity of an analogue” (Eur J Med Chem, 2010)
Calls of active or inactive are those of the source. The rule behind the calls is not given here.

Key:
[1] = test system: Rattus norvegicus; test: Protection against encephalomyelitis-induced clinical signs in Lewis rat preimmunized with Freund's complete adjuvant at 30 ug/kg, administered intrathecally bid for 5 days from day 7 after immunization; type: functional, organism-based
[2] = test system: RAW264.7; test: Antiinflammatory activity in mouse RAW264.7 cells assessed as inhibition of LPS-induced expression of COX-2 treated 10 mins before LPS challenge measured after 16 hrs by Western blotting; type: functional, cell-based
[3] = test system: RAW264.7; test: Antiinflammatory activity in mouse RAW264.7 cells assessed as inhibition of LPS-induced expression of iNOS after treated 10 mins before LPS challenge measured after 16 hrs by Western blotting; type: functional, cell-based
[4] = test system: RAW264.7; test: Cytotoxicity against mouse RAW264.7 cells assessed as inhibition of beta-actin expression at 50 uM by Western blotting; type: cell-based; details: raw264.7, 50 µM
[5] = test system: SH-SY5Y; test: Neuroprotective activity in human SH-SY5Y cells assessed as protection against 6-OHDA-induced cytotoxicity at 1 uM pretreated 1 hr before 6-OHDA challenge measured after 15 hrs by Alamar blue assay; type: functional, cell-based
[6] = test system: Rattus norvegicus; test: Antiatherosclerotic activity against balloon injury-induced angioplasty in Wistar rat assessed as inhibition of neointimal proliferation at 3 mg/kg/day, sc relative to control; type: functional; parameters: scale not given: the % may be the effect or the level left; details: route subcutaneous
[7] = test system: Rattus norvegicus; test: Antinociceptive activity in intrathecally dosed chronic constriction injury neuropathic pain Wistar rat model assessed as reduction of paw withdrawal latency measured up to 120 mins; type: functional
[8] = test system: Rattus norvegicus; test: Toxicity in chronic constriction injury neuropathic pain Wistar rat model assessed as effect on locomotor activity at 0.1 to 5 ug, administered intrathecally; type: organism-based; details: in vivo, icv_or_intrathecal
[9] = test system: Rattus norvegicus; test: Antinociceptive activity in chronic constriction injury neuropathic pain Wistar rat model assessed as reduction of paw withdrawal latency at 0.1 to 5 ug, administered intrathecally after 20 mins; type: functional, organism-based
[10] = test system: Rattus norvegicus; test: Antinociceptive activity in chronic constriction injury neuropathic pain Wistar rat model assessed as reduction of paw withdrawal latency at 5 ug, administered intrathecally after 20 to 120 mins; type: functional, organism-based
[11] = test system: Rattus norvegicus; test: Toxicity in Lewis rat assessed as neurological deffects at 30 ug/kg, administered intrathecally bid for 5 days; type: organism-based; details: in vivo, icv_or_intrathecal, 0.03 mg/kg, 120 h
[12] = test system: RAW264.7; test: Antiinflammatory activity in mouse RAW264.7 cells assessed as inhibition of LPS-induced expression of COX2 at 10 uM treated 10 mins before LPS challenge measured after 16 hrs by Western blotting relative to control; type: functional; parameters: scale not given: the % may be the effect or the level left
[13] = test system: RAW264.7; test: Antiinflammatory activity in mouse RAW264.7 cells assessed as inhibition of LPS-induced expression of iNOS at 10 uM treated 10 mins before LPS challenge measured after 16 hrs by Western blotting relative to control; type: functional; parameters: scale not given: the % may be the effect or the level left
[14] = test system: SH-SY5Y; test: Neuroprotective activity in human SH-SY5Y cells assessed as protection against 6-OHDA-induced cytotoxicity pretreated 1 hr before 6-OHDA challenge measured after 15 hrs by Alamar blue assay; type: functional
[15] = test system: RAW264.7; test: Cytotoxicity against mouse RAW264.7 cells assessed as inhibition of beta-actin expression at 30 uM by Western blotting; type: cell-based; details: raw264.7, 30 µM
[16] = Solubility of the compound in water; type: physicochemical

With `CC(=O)CCS(=O)(=O)CCO` the Activity [1] was “Active”, the IC50 [2] was 32.1 µM and the IC50 [3] was 3.6 µM. The Activity [4] was “Toxic”, the Activity [5] was “inactive” and the Activity [6] was 98.1%. For the same molecule, the ED50 [7] was 0.75 µg, the Activity [8] was “Non-toxic” and the Activity [9] was “Active”. The Activity [10] was “Active” and the Activity [11] was “Non-toxic”.

In the case of `CC(=O)CCSCCO`, the Activity [12] is reported as 91.2% and the Activity [13] is reported as 59.5%.

In the case of `C=CS(=O)(=O)CCC(C)=O` [AUSTRASULFONE], the Activity [14] is reported as “Dose-dependent effect”, the EC50 ([14]; read-out: ED50 (the source's name)) is reported as 0.011 µM and the Activity [15] is reported as “Toxic”. It also gave a solubility [16] greater than 50 mg/mL.
